The source of these data is US8470828B2, “Anellated pyridine compounds” (Hoffmann-La Roche Inc., priority 2010, dated 2013).

Data set [1] addresses T1, human D2 receptor (Homo sapiens, UniProt P14416).
T1 construct: expressed in transfected cells; host or cells: HEK293 EBNA cells, transient transfection; membrane preparation
Nature of the data set: Radioligand binding to cloned human D2 receptor expressed in HEK-293 EBNA cells ([3H]-spiperone). Particulars: HEK293 EBNA cell membranes, approximately 0.7 nM [3H]-spiperone, 1 h at RT.
Method: (§1) HEK293 EBNA cells were transiently transfected with expression plasmids encoding for the human D2 or D3 or for the human 5-HT2A receptor, respectively. The cells were harvested 48 h post-transfection, washed three times with cold PBS and stored at −80° C. prior to use. The pellet was suspended in cold 50 mM Tris-HCl buffer comprising 10 mM EDTA (pH 7.4) and was homogenized with a Polytron (Kinematica A G, Basel, Switzerland) for 20-30 sec at 12.000 rpm. After centrifugation at 48.000×g for 30 min at 4° C., the pellet was resuspended in cold 10 mM Tris-HCl buffer comprising 0.1 mM EDTA (pH 7.4), homogenized, and centrifuged as above. This pellet was further resuspended in a smaller volume of ice cold 10 mM Tris-HCl buffer comprising 0.1 mM EDTA (pH 7.4) and homogenized with a Polytron for 20-30 sec at 12.000 rpm. The protein content of this homogenate was determined with the Bio-Rad (Bradford) Protein Assay (Biorad Laboratories GmbH, München, Germany) according to the instructions of the manufacturer using gamma globulin as the standard. This homogenate was stored at −80° C. in aliquots and thawed immediately prior to use.
(§2) Aliquots of membrane preparations were thawed at RT, resupended in assay buffer (D2, D3: 50 mM Tris-HCl, 120 mM NaCl, 5 mM MgCl2, 1 mM EDTA, 5 mM KCl, 1.5 mM CaCl2, pH=7.4; 5-HT2A: 50 mM Tris-HCl, 10 mM MgCl2, 1 mM EGTA, pH=7.4), homogenized with a Polytron for 20-30 sec at 12.000 rpm and adjusted to a final concentration of approximately 7.5 μg protein/well (D2, D3) and 15 μg protein/well (5-HT2A), respectively.
(§3) The binding affinity (Ki) of the compounds was determined using radioligand binding. Membranes were incubated in a total volume of 200 μl with a fixed concentration of radioligand (final concentration approximately 0.7 nM [^3H]-spiperone for D2, 0.5 nM [^3H]-spiperone for D3, and 1.1 nM [^3H]-ketanserin for 5-HT2A) and ten concentrations of test compound in ranging between 10 μM-0.1 nM for 1 h at RT. At the end of the incubation, the reaction mixtures were filtered on to unifilter 96-well white microplates with bonded GF/C filters (Packard BioScience, Zürich, Switzerland; preincubated for 1 h in 0.1% polyethylenimine (PEI) in assay buffer) with a Filtermate 196 harvester (Packard BioScience) and washed 3 times with cold assay buffer. The nonspecific binding was determined with equally composed reaction mixtures in the presence of 10 μM unlabelled spiperone. Per well 45 μl of Microscint 40 (Perkin Elmer, Schwerzenbach, Switzerland) was added, plates for sealed, shaken for 20 min and counted for 3 min on a Topcount Microplate Scintillation Counter (Can berra Packard S A, Zürich, Switzerland) with quenching correction.
(§4) The CPM value for each duplicate of a concentration of competing compound was averaged (y1), then the % specific binding was calculated according to the equation (((y1−non-specific)/(total binding−non-specific))×100). Graphs were plotted with the % specific binding using XLfit, a curve fitting program that iteratively plots the data using Levenberg-Marquardt algorithm. The single site competition analysis equation used was y=A+((B−A)/(1+((x/C)D))), where y is the % specific binding, A is the minimum y, B is the maximum y, C is the IC50, x is the log 10 of the concentration of the competing compound and D is the slope of the curve (the Hill Coefficient). […] The affinity constant (Ki) was calculated using the Cheng-Prusoff equation Ki=(IC50/1+([L]/Kd), where [L] is the concentration of radioligand and Kd is the dissociation constant of the radioligand at the receptor as determined by the saturation isotherm.

Data set [2] addresses human D3 receptor (Homo sapiens, UniProt P35462). Nature of the data set: Radioligand binding to cloned human D3 receptor expressed in HEK-293 EBNA cells ([3H]-spiperone).
Method: as §1, §2, §3, §4
The target of data set [3] is human 5-HT2A receptor (Homo sapiens, UniProt P28223). In words: Radioligand binding to cloned human 5-HT2A receptor expressed in HEK-293 EBNA cells ([3H]-ketanserin).
Sequence of human 5-HT2A receptor (P28223 whole entry): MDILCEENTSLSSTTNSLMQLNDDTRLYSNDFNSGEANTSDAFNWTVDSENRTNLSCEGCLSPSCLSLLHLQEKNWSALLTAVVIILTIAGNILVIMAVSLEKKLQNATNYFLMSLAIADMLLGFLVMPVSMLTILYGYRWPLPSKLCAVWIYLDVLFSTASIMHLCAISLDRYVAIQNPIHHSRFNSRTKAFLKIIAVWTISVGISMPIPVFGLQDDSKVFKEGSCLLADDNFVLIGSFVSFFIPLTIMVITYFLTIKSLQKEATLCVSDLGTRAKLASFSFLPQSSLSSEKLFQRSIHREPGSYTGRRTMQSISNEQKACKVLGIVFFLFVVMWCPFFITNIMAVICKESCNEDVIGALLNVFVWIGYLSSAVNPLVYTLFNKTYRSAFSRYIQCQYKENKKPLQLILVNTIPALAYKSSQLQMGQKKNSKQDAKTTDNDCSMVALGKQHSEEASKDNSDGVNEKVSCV
Method: as §1, §2, §3, §4

Sequence of human D3 receptor (P35462 whole entry): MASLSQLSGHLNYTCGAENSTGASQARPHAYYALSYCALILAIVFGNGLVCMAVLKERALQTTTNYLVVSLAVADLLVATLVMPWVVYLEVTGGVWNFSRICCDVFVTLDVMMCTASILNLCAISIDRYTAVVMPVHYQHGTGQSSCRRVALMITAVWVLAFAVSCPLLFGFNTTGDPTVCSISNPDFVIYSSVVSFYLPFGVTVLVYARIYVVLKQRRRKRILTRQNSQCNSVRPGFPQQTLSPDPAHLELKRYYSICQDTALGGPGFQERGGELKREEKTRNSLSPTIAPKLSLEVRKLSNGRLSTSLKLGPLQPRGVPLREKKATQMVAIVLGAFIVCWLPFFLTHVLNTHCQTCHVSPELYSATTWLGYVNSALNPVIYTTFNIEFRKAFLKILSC
T1 sequence (P14416 whole entry): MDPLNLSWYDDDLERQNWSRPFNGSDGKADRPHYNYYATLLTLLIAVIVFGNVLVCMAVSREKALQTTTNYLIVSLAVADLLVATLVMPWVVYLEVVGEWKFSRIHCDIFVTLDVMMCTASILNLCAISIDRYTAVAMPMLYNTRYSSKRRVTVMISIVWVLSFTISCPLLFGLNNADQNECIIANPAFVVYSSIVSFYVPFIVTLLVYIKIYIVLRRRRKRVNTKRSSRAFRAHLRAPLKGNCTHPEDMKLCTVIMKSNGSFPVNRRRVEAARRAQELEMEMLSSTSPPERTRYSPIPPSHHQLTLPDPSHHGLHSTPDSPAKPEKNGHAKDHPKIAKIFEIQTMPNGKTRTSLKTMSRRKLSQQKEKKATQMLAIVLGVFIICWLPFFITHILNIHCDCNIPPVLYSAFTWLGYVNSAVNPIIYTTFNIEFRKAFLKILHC

`COC(CC(=O)N[C@H]1CC[C@H](CCN2CCN(c3nccc4c3OCC4)CC2)CC1)OC` [Example 62, trans-N-(4-{2-[4-(2,3-Dihydro-furo[2,3-c]pyridin-7-yl)-piperazin-1-yl]-ethyl}-cyclohexyl)-3,3-dimethoxy-propionamide] registered a melting point of 218 °C. In data set [1], this molecule had a Ki of 1280 nM. Further, the Ki in data set [2] was found to be 7.22 nM. This molecule also registered an inhibitory constant (Ki) in data set [3] of 38.2 nM.
The corresponding values for `COC(CCC(=O)N[C@H]1CC[C@H](CCN2CCN(c3nccc4c3OCC4)CC2)CC1)OC` [Example 63, trans-N-(4-{2-[4-(2,3-Dihydro-furo[2,3-c]pyridin-7-yl)-piperazin-1-yl]-ethyl}-cyclohexyl)-4,4-dimethoxy-butyramide] are 204.5 °C, 1920 nM, 22.1 nM and 35.3 nM.
In turn, `Cc1nc(-c2cccc(C(=O)N[C@H]3CC[C@H](CCN4CCN(c5nccc6c5OCC6)CC4)CC3)c2)no1` [Example 64, trans-N-(4-{2-[4-(2,3-Dihydro-furo[2,3-c]pyridin-7-yl)-piperazin-1-yl]-ethyl}-cyclohexyl)-3-(5-methyl-[1,2,4]oxadiazol-3-yl)-benzamide] had a melting point of 227.5 °C. Besides, in data set [1], the “D2 Ki” value is “inactive”. Also, the affinity in data set [2] corresponds to a Ki of 4.43 nM. In addition, in data set [3], affinity was put at a Ki of 54.4 nM.
The molecule `O=C(N[C@H]1CC[C@H](CCN2CCN(c3nccc4c3OCC4)CC2)CC1)c1ccc(-n2cccn2)cc1` [Example 65, trans-N-(4-{2-[4-(2,3-Dihydro-furo[2,3-c]pyridin-7-yl)-piperazin-1-yl]-ethyl}-cyclohexyl)-4-pyrazol-1-yl-benzamide] yielded a melting point of 225.5 °C. Besides, affinity in data set [1] was put at a Ki of 502 nM. This molecule returned a Ki in data set [2] of 11.1 nM. In data set [3], this molecule registered a Ki of 29.2 nM.
With `O=C(N[C@H]1CC[C@H](CCN2CCN(c3nccc4c3OCC4)CC2)CC1)c1ccc(-n2cccc2)cc1` [Example 66, trans-N-(4-{2-[4-(2,3-Dihydro-furo[2,3-c]pyridin-7-yl)-piperazin-1-yl]-ethyl}-cyclohexyl)-4-pyrrol-1-yl-benzamide], the melting point came to 236.5 °C. In data set [1], the affinity corresponds to a Ki of 240 nM. For the same molecule, in data set [2], the Ki amounted to 13.8 nM. The inhibition constant (Ki) in data set [3] stood at 38 nM.
`O=C(N[C@H]1CC[C@H](CCN2CCN(c3nccc4c3OCC4)CC2)CC1)c1ccc(Cl)cc1Cl` [Example 67, trans-2,4-Dichloro-N-(4-{2-[4-(2,3-dihydro-furo[2,3-c]pyridin-7-yl)-piperazin-1-yl]-ethyl}-cyclohexyl)-benzamide]: the melting point was 243.5 °C. In data set [1], this molecule yielded an inhibition constant (Ki) of 5050 nM. Moreover, the inhibition constant Ki in data set [2] was 47.2 nM. This molecule also showed a Ki in data set [3] of 93.3 nM.
The corresponding values for `CN1CCN(c2ccc(C(=O)N[C@H]3CC[C@H](CCN4CCN(c5nccc6c5OCC6)CC4)CC3)cc2)CC1` [Example 68, trans-N-(4-{2-[4-(2,3-Dihydro-furo[2,3-c]pyridin-7-yl)-piperazin-1-yl]-ethyl}-cyclohexyl)-4-(4-methyl-piperazin-1-yl)-benzamide] are 235.5 °C, 120 nM, 6 nM and 4.86 nM.
In turn, `Cc1ccc(C(=O)N[C@H]2CC[C@H](CCN3CCN(c4nccc5c4OCC5)CC3)CC2)cn1` [Example 69, trans-N-(4-{2-[4-(2,3-Dihydro-furo[2,3-c]pyridin-7-yl)-piperazin-1-yl]-ethyl}-cyclohexyl)-6-methyl-nicotinamide] returned a melting point of 204 °C. In data set [1], the Ki was 597 nM. In addition, the Ki in data set [2] is 17.3 nM. In data set [3], this molecule yielded a Ki of 25.2 nM.
Consider `O=C(N[C@H]1CC[C@H](CCN2CCN(c3nccc4c3OCC4)CC2)CC1)c1ccc(-c2ccccc2)cc1` [Example 70, Biphenyl-4-carboxylic acid trans-(4-{2-[4-(2,3-dihydro-furo[2,3-c]pyridin-7-yl)-piperazin-1-yl]-ethyl}-cyclohexyl)-amide], for which the melting point is 220.5 °C. The molecule also yielded an inhibition constant Ki in data set [1] of 556 nM. In data set [2], this molecule registered a Ki of 18.4 nM. The molecule also had a Ki in data set [3] of 45.6 nM.
`O=C(N[C@H]1CC[C@H](CCN2CCN(c3nccc4c3OCC4)CC2)CC1)c1ccc(-c2cccnc2)cc1` [Example 71, trans-N-(4-{2-[4-(2,3-Dihydro-furo[2,3-c]pyridin-7-yl)-piperazin-1-yl]-ethyl}-cyclohexyl)-4-pyridin-3-yl-benzamide] had a melting point of 235 °C. In data set [1], this molecule came in with an inhibition constant (Ki) of 270 nM. In data set [2], this molecule came in with an inhibition constant (Ki) of 7.61 nM. Further, in data set [3], the inhibition constant Ki was 19.1 nM.
In turn, `N#Cc1ccc(C(=O)N[C@H]2CC[C@H](CCN3CCN(c4nccc5c4OCC5)CC3)CC2)cc1` [Example 72, trans-4-Cyano-N-(4-{2-[4-(2,3-dihydro-furo[2,3-c]pyridin-7-yl)-piperazin-1-yl]-ethyl}-cyclohexyl)-benzamide] had a melting point of 262.5 °C. For the same molecule, in data set [1], the affinity corresponds to a Ki of 633 nM. The affinity in data set [2] corresponds to a Ki of 17.8 nM. Moreover, the affinity in data set [3] corresponds to a Ki of 24.6 nM.
As for `O=C(N[C@H]1CC[C@H](CCN2CCN(c3nccc4c3OCC4)CC2)CC1)c1ccc(N2CCOCC2)nc1` [Example 73, trans-N-(4-{2-[4-(2,3-Dihydro-furo[2,3-c]pyridin-7-yl)-piperazin-1-yl]-ethyl}-cyclohexyl)-6-morpholin-4-yl-nicotinamide], the melting point is 231 °C. For the same molecule, affinity in data set [1] was put at a Ki of 479 nM. The Ki in data set [2] was 15 nM. This molecule also gave a Ki in data set [3] of 22.4 nM.
In turn, `O=C(N[C@H]1CC[C@H](CCN2CCN(c3nccc4c3OCC4)CC2)CC1)c1ccc(N2CCS(=O)(=O)CC2)cc1` [Example 74, trans-N-(4-{2-[4-(2,3-Dihydro-furo[2,3-c]pyridin-7-yl)-piperazin-1-yl]-ethyl}-cyclohexyl)-4-(1,1-dioxo-1λ6-thiomorpholin-4-yl)-benzamide] came in with a melting point of 260.5 °C. In addition, the Ki in data set [1] turned out to be 145 nM. In data set [2], this molecule displayed a Ki of 9.47 nM. In data set [3], this molecule came in with an inhibition constant (Ki) of 23.1 nM.
Regarding `O=C(Cc1noc2ccccc12)N[C@H]1CC[C@H](CCN2CCN(c3nccc4c3OCC4)CC2)CC1` [Example 75, trans-2-Benzo[d]isoxazol-3-yl-N-(4-{2-[4-(2,3-dihydro-furo[2,3-c]pyridin-7-yl)-piperazin-1-yl]-ethyl}-cyclohexyl)-acetamide], the melting point amounted to 211 °C. The molecule further registered a Ki in data set [1] of 628 nM. The Ki in data set [2] came to 6.28 nM. In data set [3], this molecule showed an inhibitory constant (Ki) of 45.7 nM.
Regarding `CC(C)(C)Oc1ccc(C(=O)N[C@H]2CC[C@H](CCN3CCN(c4nccc5c4OCC5)CC3)CC2)cc1` [Example 76, trans-4-tert-Butoxy-N-(4-{2-[4-(2,3-dihydro-furo[2,3-c]pyridin-7-yl)-piperazin-1-yl]-ethyl}-cyclohexyl)-benzamide], the melting point was 168.5 °C. Also, the affinity in data set [1], expressed as Ki, was 814 nM. The affinity in data set [2] corresponds to a Ki of 33.3 nM. Also, the inhibition constant Ki in data set [3] was 44.3 nM.
In turn, `O=C(N[C@H]1CC[C@H](CCN2CCN(c3nccc4c3OCC4)CC2)CC1)c1ccc2ncccc2c1` [Example 77, Quinoline-6-carboxylic acid trans-(4-{2-[4-(2,3-dihydro-furo[2,3-c]pyridin-7-yl)-piperazin-1-yl]-ethyl}-cyclohexyl)-amide] showed a melting point of 211.5 °C. Further, in data set [1], affinity was put at a Ki of 432 nM. Moreover, the affinity in data set [2] corresponds to a Ki of 9.44 nM. The Ki in data set [3] was 35.4 nM.
Take `O=C(N[C@H]1CC[C@H](CCN2CCN(c3nccc4c3OCC4)CC2)CC1)c1cnc(N2CCOCC2)cn1` [Example 78, 5-Morpholin-4-yl-pyrazine-2-carboxylic acid trans-(4-{2-[4-(2,3-dihydro-furo[2,3-c]pyridin-7-yl)-piperazin-1-yl]-ethyl}-cyclohexyl)-amide]: the melting point turned out to be 200.5 °C. Also, in data set [1], the affinity corresponds to a Ki of 670 nM. The same molecule yielded an inhibition constant Ki in data set [2] of 42.5 nM. This molecule also showed an inhibitory constant (Ki) in data set [3] of 29.6 nM.
On to `O=C(N[C@H]1CC[C@H](CCN2CCN(c3nccc4c3OCC4)CC2)CC1)C1(O)CCC1` [Example 79, 1-Hydroxy-cyclobutanecarboxylic acid trans-(4-{2-[4-(2,3-dihydro-furo[2,3-c]pyridin-7-yl)-piperazin-1-yl]-ethyl}-cyclohexyl)-amide], for which the melting point was found to be 250 °C. Moreover, affinity in data set [1] was put at a Ki of 623 nM. This molecule also gave an inhibitory constant (Ki) in data set [2] of 37.5 nM. In data set [3], this molecule came in with a Ki of 15.7 nM.
For `CS(=O)(=O)c1ccc(C(=O)N[C@H]2CC[C@H](CCN3CCN(c4nccc5c4OCC5)CC3)CC2)s1` [Example 81, 5-Methanesulfonyl-thiophene-2-carboxylic acid trans-(4-{2-[4-(2,3-dihydro-furo[2,3-c]pyridin-7-yl)-piperazin-1-yl]-ethyl}-cyclohexyl)-amide], the melting point is 212 °C. The molecule also showed a Ki in data set [1] of 362 nM. In data set [2], this molecule gave a Ki of 12.2 nM. Besides, the affinity in data set [3], expressed as Ki, was 19 nM.
The like results for `O=C(CCC(F)(F)F)N[C@H]1CC[C@H](CCN2CCN(c3nccc4c3OCC4)CC2)CC1` [Example 84, trans-N-(4-{2-[4-(2,3-Dihydro-furo[2,3-c]pyridin-7-yl)-piperazin-1-yl]-ethyl}-cyclohexyl)-4,4,4-trifluoro-butyramide] were, in that order, 204.5 °C, 1410 nM, 14.2 nM and 112 nM.
Molecule `O=C(N[C@H]1CC[C@H](CCN2CCN(c3nccc4c3OCC4)CC2)CC1)C1CC1(F)F` (stereo partly drawn) [Example 85, 2,2-Difluoro-cyclopropanecarboxylic acid trans-(4-{2-[4-(2,3-dihydro-furo[2,3-c]pyridin-7-yl)-piperazin-1-yl]-ethyl}-cyclohexyl)-amide] yielded a melting point of 227 °C. This molecule came in with a Ki in data set [1] of 616 nM. The molecule further came in with an inhibition constant (Ki) in data set [2] of 9.89 nM. Moreover, the inhibitory constant (Ki) in data set [3] is 60.2 nM.
